Test results reported in the supplement of paper PMC5908809.

How the values were obtained:
DERL-7 (IL-2 2.5 ng/mL) [1] = experiment: drug sensitivity score (DSS) (DSS units); higher = more sensitive; extreme values may be limits of the assay; details: 72 h
KHYG-1 (IL-2 2.5 ng/mL) [2] = experiment: as above; details: 72 h
YT (IL-2 2.5 ng/mL) [3] = experiment: as above; details: 72 h
NKL (IL-2 2.5 ng/mL) [4] = experiment: as above; details: 72 h
SNK-6 (IL-2 2.5 ng/mL) [5] = experiment: as above; details: 72 h
NK-YS (IL-2 2.5 ng/mL) [6] = experiment: as above; details: 72 h
[7] = test system: normal primary NK cells, pool 3 (3 donors) (IL-2 2.5 ng/mL); experiment: as above; details: 72 h
[8] = test system: normal primary NK cells, pool 1 (3 donors) (IL-2 2.5 ng/mL); experiment: as above; details: 72 h
[9] = test system: normal primary NK cells, pool 1 (3 donors), resting (IL-2 0 ng/mL); experiment: as above; details: 72 h
IMC-1 (IL-2 20 ng/mL) [10] = experiment: as above; details: 72 h
NK-92 (IL-2 2.5 ng/mL) [11] = experiment: as above; details: 72 h
[12] = test system: normal primary NK cells, pool 2 (3 donors) (IL-2 2.5 ng/mL); experiment: as above; details: 72 h
KAI3 (IL-2 2.5 ng/mL) [13] = experiment: as above; details: 72 h
[14] = test system: normal NK cells expanded with K562-aAPC; experiment: percent inhibition of viability; higher = more inhibition; details: 72 h, IL-2 2.5 ng/mL
Description: (§1)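 Drug sensitivity and resistance testing on K562-aAPC-expanded normal NK cells: 5 concentrations (10-fold steps over a 10,000-fold range), 72 h at 37 °C, viability by CellTiter-Glo normalised to DMSO and benzethonium chloride controls; DSS from the fitted curve.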

DERL-7 (IL-2 2.5 ng/mL) [15] = experiment: as above; details: 72 h
KHYG-1 (IL-2 2.5 ng/mL) [16] = experiment: as above; details: 72 h
YT (IL-2 2.5 ng/mL) [17] = experiment: as above; details: 72 h
NKL (IL-2 2.5 ng/mL) [18] = experiment: as above; details: 72 h
SNK-6 (IL-2 2.5 ng/mL) [19] = experiment: as above; details: 72 h
NK-YS (IL-2 2.5 ng/mL) [20] = experiment: as above; details: 72 h
[21] = test system: normal primary NK cells, pool 3 (3 donors) (IL-2 2.5 ng/mL); experiment: as above; details: 72 h
[22] = test system: normal primary NK cells, pool 1 (3 donors) (IL-2 2.5 ng/mL); experiment: as above; details: 72 h
[23] = test system: normal primary NK cells, pool 1 (3 donors), resting (IL-2 0 ng/mL); experiment: as above; details: 72 h
IMC-1 (IL-2 20 ng/mL) [24] = experiment: as above; details: 72 h
NK-92 (IL-2 2.5 ng/mL) [25] = experiment: as above; details: 72 h
[26] = test system: normal primary NK cells, pool 2 (3 donors) (IL-2 2.5 ng/mL); experiment: as above; details: 72 h
KAI3 (IL-2 2.5 ng/mL) [27] = experiment: as above; details: 72 h
[28] = test system: normal NK cells expanded with K562-aAPC; experiment: drug sensitivity score (DSS) (DSS units); higher = more sensitive; extreme values may be limits of the assay; details: 72 h; IL-2 2.5 ng/mL
Description: as §1

CC[C@]1(O)C[C@H]2CN(CCc3c([nH]c4ccccc34)[C@@](C(=O)OC)(c3cc4c(cc3OC)N(C=O)[C@H]3[C@@](O)(C(=O)OC)[C@H](OC(C)=O)[C@]5(CC)C=CCN6CC[C@]43[C@@H]65)C2)C1 [Vincristine] (max concentration tested 1000 nM)
Details	drug sensitivity score
DERL-7 (IL-2 2.5 ng/mL) [1]	30.1
IMC-1 (IL-2 20 ng/mL) [10]	30.1
KAI3 (IL-2 2.5 ng/mL) [13]	20.7
KHYG-1 (IL-2 2.5 ng/mL) [2]	30.5
NK-92 (IL-2 2.5 ng/mL) [11]	24.3
NK-YS (IL-2 2.5 ng/mL) [6]	24.4
NKL (IL-2 2.5 ng/mL) [4]	30.9
SNK-6 (IL-2 2.5 ng/mL) [5]	27.4
YT (IL-2 2.5 ng/mL) [3]	29.8
[7]	0.39
[8]	2.75
[9]	6.94
[12]	4.98
[28]	15.5

percent inhibition of viability [%]
Details	0.1 nM	1 nM	10 nM	100 nM	1000 nM
DERL-7 (IL-2 2.5 ng/mL) [15]	-4.76	-3.31	99.7	100	99.9
IMC-1 (IL-2 20 ng/mL) [24]	-6.56	-3.8	99.6	101	101
KAI3 (IL-2 2.5 ng/mL) [27]	-2.89	0.47	50	71.7	82.8
KHYG-1 (IL-2 2.5 ng/mL) [16]	-4.8	0.56	99.8	108	109
NK-92 (IL-2 2.5 ng/mL) [25]	0.11	-12.7	50.9	101	106
NK-YS (IL-2 2.5 ng/mL) [20]	-8.13	-3.11	72.6	72.9	87.9
NKL (IL-2 2.5 ng/mL) [18]	-4.74	5.25	97.5	99.9	101
SNK-6 (IL-2 2.5 ng/mL) [19]	-5.32	2.61	81.6	86.6	96.8
YT (IL-2 2.5 ng/mL) [17]	-6.99	-4.04	97.3	106	106
[14]	-6.33	-6.29	31.6	59	62.6
[21]	-10	9.15	8.72	4.62	15.8
[22]	-8.19	4.79	8.62	16.3	23.7
[23]	-21.8	5.88	11	33.2	38.4
[26]	-7.02	11	16.4	18.7	25.8

Nc1nc(Nc2ccc3c(c2)CC[C@@H](N2CCCC2)CC3)nn1-c1cc2c(nn1)-c1ccccc1CCC2 [BGB324] (max concentration tested 10000 nM)
Details	drug sensitivity score
DERL-7 (IL-2 2.5 ng/mL) [1]	14.7
IMC-1 (IL-2 20 ng/mL) [10]	5.23
KAI3 (IL-2 2.5 ng/mL) [13]	11.2
KHYG-1 (IL-2 2.5 ng/mL) [2]	12.5
NK-92 (IL-2 2.5 ng/mL) [11]	11.6
NK-YS (IL-2 2.5 ng/mL) [6]	7.94
NKL (IL-2 2.5 ng/mL) [4]	14.8
SNK-6 (IL-2 2.5 ng/mL) [5]	10.3
YT (IL-2 2.5 ng/mL) [3]	7.38
[7]	9.12
[8]	13.2
[9]	16
[12]	11.3
[28]	8.94

percent inhibition of viability [%]
Details	1 nM	10 nM	100 nM	1000 nM	10000 nM
DERL-7 (IL-2 2.5 ng/mL) [15]	1.87	-0.37	13.9	68	101
IMC-1 (IL-2 20 ng/mL) [24]	-1.43	-0.15	0.68	-4.19	99.9
KAI3 (IL-2 2.5 ng/mL) [27]	-3.31	-2.86	2.2	43.9	101
KHYG-1 (IL-2 2.5 ng/mL) [16]	-2.69	-1.76	3.04	59	103
NK-92 (IL-2 2.5 ng/mL) [25]	-4.37	-8.81	-0.92	49	102
NK-YS (IL-2 2.5 ng/mL) [20]	-2.01	-2.03	0.13	14.3	101
NKL (IL-2 2.5 ng/mL) [18]	6.99	-6.74	6.47	73.7	102
SNK-6 (IL-2 2.5 ng/mL) [19]	12.8	12.3	-18.1	34.5	99.7
YT (IL-2 2.5 ng/mL) [17]	-0.88	-5.6	-1.23	11	101
[14]	-3.36	-11.5	-1.93	21.5	99.9
[21]	-9.08	-10.5	-10.5	23.1	99.8
[22]	-3.33	-4.6	-5.97	66.2	99.8
[23]	7.14	3.63	5.02	83.6	99.8
[26]	-7.98	-0.57	-5.73	45.8	100
